Experiments:
Format in all cases: in vivo, human
healthy adults = test: Drug interaction study with co-administration of vadadustat in healthy adults; settings: healthy adults; extent of increase
Excerpt: Sulfasalazine. Other Breast Cancer Resistance Protein Substrates. and Probenecid. Exposures to sulfasalazine (moderately) and mesalamine (mildly) were increased with co-administration of vadadustat based on a study in healthy adults. In subjects taking vadadustat, sulfasalazine and other clinically relevant substrates of the breast cancer resistance protein (BCRP) transporter (e.g., sulfasalazine, methotrexate, mitoxantrone, imatinib, irinotecan, lapatinib, topotecan, tenofovir, glecaprevir, pibrentasvir, or sofosbuvir), caution should be taken during the study. Probenecid, an inhibitor of UDP-glucuronosyltransferase (UGT) and the organic anion transporter (OAT)1/3 transporters, increased vadadustat area under the curve and is prohibited during the study.

[1] = Phase 1b study: pharmacokinetics of vadadustat and its metabolites in plasma of hemodialysis subjects with anemia associated with CKD
Protocol: The primary objective of the study was to assess the pharmacokinetics (PK) of vadadustat 600, 750, and 900 mg daily, and IV ESA (darbepoetin alfa or epoetin alfa) in hemodialysis subjects with anemia associated with CKD. Additional objectives included to evaluate the pharmacodynamics (PD) of vadadustat 600, 750, and 900 mg daily, and IV ESA (darbepoetin alfa or epoetin alfa) in hemodialysis subjects with anemia associated with CKD and to assess the safety and tolerability of vadadustat 600, 750, and 900 mg daily and IV ESA (darbepoetin alfa or epoetin alfa) in hemodialysis subjects with anemia associated with CKD.
Study Design. This was a Phase 1b, randomized, open-label study to evaluate the PK, PD, safety, and tolerability of vadadustat 600, 750, or 900 mg daily, or ESA (darbepoetin alfa or epoetin alfa) in hemodialysis subjects with anemia associated with CKD. The study included a 28-day Screening and Randomization period, a 10-day Treatment Period, and a 30-day Safety Follow up Period after the last dose of study drug (vadadustat or ESA). For subjects randomized to vadadustat, study duration also included an ESA washout period of a minimum of 5 days for epoetin alfa or 9 days for darbepoetin alfa or 9-day ESA Washout period prior to dosing on Day 1.
A total of 46 subjects were enrolled in the study. Written informed consent were obtained before any screening procedures were performed. Subjects were screened within 28 days prior to randomization. Eligible subjects were randomized in a 2:2:2:1 ratio to 1 of 4 treatment groups (600, 750, or 900 mg vadadustat QD, or ESA. Randomized subjects began their 10-day Treatment Period within 36 days of initiating screening.
Eligible subjects were randomly assigned in a 2:2:2:1 ratio to 1 of 4 treatment groups: Group 1—vadadustat 600 mg once daily (QD); Group 2—vadadustat 750 mg QD; Group 3—vadadustat 900 QD; and Group 4—IV ESA. Randomization was stratified by the mean weekly ESA dose calculated over a period of 8 weeks prior to the randomization visit. For darbepoetin, the groups were divided into low dose darbepoetin alfa group (<0.5 μg/kg/week) and high dose darbepoetin alfa group (>0.5 to <1.5 μg/kg/week). For epoetin, the groups were divided into low dose epoetin alfa group (≤90 U/kg/week) and high dose epoetin alfa group (>90 to <300 U/kg/week).
Subjects began dosing on Day 1 and took vadadustat at approximately the same time each day for a total of 10 days. On Day 1 and Day 8, subjects took vadadustat after all predose procedures are completed and within 30 minutes prior to the start of dialysis so that the 1-hour post dose blood sample for PK and PD was collected during dialysis. Vadadustat could be taken with or without food. Subjects were instructed to make every effort to take the drug consistently, either with or without food. Subjects were instructed to swallow the tablets whole with water.
PK and EPO Sample. For each vadadustat treatment group, blood samples for vadadustat PK (and its metabolites) and EPO were collected at the following time points: Day 1: predose, and at 1, 2, 3, 4, 5, 8, and 11 hours post dose; Day 2: 24 hours (−2 hours) post Day 1 dose; Day 6: blood sample for EPO analysis only was collected predose on Day 6; Day 8: predose, and at 1, 2, 3, 4, 5, 8, 11 hours post dose, Day 10 or EOT: predose. For the ESA treatment group, blood samples for analysis of EPO were collected at the following time points: Day 1: predose, and at 0.25, 1, 2, 3, 4, 5, 8, and 11 hours post dose; Day 2: 24 hours (−2 hours) post Day 1 dose.
Primary Endpoints. […]

[2] = Phase 2 study, Main Study: pharmacokinetics (vadadustat and vadadustat-O-glucuronide concentration); settings: Week 1, Week 1+1 day, and Week 11
Protocol: PK/PD Endpoints. An exposure-response analysis of vadadustat and PD measures were conducted as deemed appropriate. The PK parameters included (but were not limited to) the following: area under concentration-time curve from dosing to last measurable concentration (AUClast), area under concentration-time curve from dosing to infinity (AUCinf), Cmax, apparent total body clearance (CL/F), apparent volume of distribution (Vd/F), and terminal half-life (t1/2). The PD parameters included (but were not limited to) the following: EPO, reticulocytes, iron, ferritin, TIBC, and hepcidin.
PK population: included all randomized subjects who received study drug (vadadustat or epoetin alfa) and had enough drug concentrations to estimate AUC and Cmax. Analysis of this population was based on the dose amount taken at the date of PK sampling for the vadadustat group.

| Structure (SMILES) | Exposures increased with co-administration of vadadustat (healthy adults) | metabolite exposure versus dose ([1]; Day 8) | accumulation versus dose ([1]; most pronounced in the 900 mg vadadustat treatment group) | mean concentration versus time profiles, dose dependency [2] |
| --- | --- | --- | --- | --- |
| Nc1ccc(O)c(C(=O)O)c1 [mesalamine] | mildly |  |  |  |
| O=C(O)c1cc(/N=N/c2ccc(S(=O)(=O)Nc3ccccn3)cc2)ccc1O [sulfasalazine] | moderately |  |  |  |
| O=C(O)CNC(=O)c1ncc(-c2cccc(Cl)c2)cc1O[C@@H]1O[C@H](C(=O)O)[C@@H](O)[C@H](O)[C@H]1O [vadadustat-O-glucuronide] |  | increased in a dose-dependent manner | dose-dependent increase in accumulation | concentrations increased with dose levels |

From patent US12697330B2, “Therapeutic methods using vadadustat” (Akebia Therapeutics, Inc., priority 2021, dated 2026)
